Laboratory results published in PubChem BioAssay AID1963847 (Molecular Pharmacology Branch, DTP, NCI, 2024).

System: 415267-285-R-J2-PDC complex spheroid viability
Assay: Anticancer human tumor 415267-285-R-J2-PDC patient-derived breast carcinoma cell line growth inhibition [POLQ]
Settings: for IC50: curve of first compound; for viability, T/C: stronger effect = lower value
Summary of the method: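 Complex spheroid viability model combining PDC tumour cells with endothelial (HUVEC) and MSC stromal cells. Novobiocin, ART-558 or RP6685 were tested singly and in combination with standard and investigational anticancer drugs. Each was titrated in half-log steps from near clinical Cmax, or from 10 microM where Cmax was unknown.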

[1] = second compound 0.0316 µM, first compound 0.0316 µM
[2] = second compound 0.0316 µM, first compound 0.1 µM
[3] = second compound 0.0316 µM, first compound 0.316 µM
[4] = second compound 0.0316 µM, first compound 1 µM
[5] = second compound 0.0316 µM, first compound 3.16 µM
[6] = second compound 0.0316 µM, first compound 10 µM
[7] = second compound 0.1 µM, first compound 0.0316 µM
[8] = second compound 0.1 µM, first compound 0.1 µM
[9] = second compound 0.1 µM, first compound 0.316 µM
[10] = second compound 0.1 µM, first compound 1 µM
[11] = second compound 0.1 µM, first compound 3.16 µM
[12] = second compound 0.1 µM, first compound 10 µM
[13] = second compound 0.316 µM, first compound 0.0316 µM
[14] = second compound 0.316 µM, first compound 0.1 µM
[15] = second compound 0.316 µM, first compound 0.316 µM
[16] = second compound 0.316 µM, first compound 1 µM
[17] = second compound 0.316 µM, first compound 3.16 µM
[18] = second compound 0.316 µM, first compound 10 µM
[19] = second compound 1 µM, first compound 0.0316 µM
[20] = second compound 1 µM, first compound 0.1 µM
[21] = second compound 1 µM, first compound 0.316 µM
[22] = second compound 1 µM, first compound 1 µM
[23] = second compound 1 µM, first compound 3.16 µM
[24] = second compound 1 µM, first compound 10 µM
[25] = second compound 3.16 µM, first compound 0.0316 µM
[26] = second compound 3.16 µM, first compound 0.1 µM
[27] = second compound 3.16 µM, first compound 0.316 µM
[28] = second compound 3.16 µM, first compound 1 µM
[29] = second compound 3.16 µM, first compound 3.16 µM
[30] = second compound 3.16 µM, first compound 10 µM
[31] = second compound 10 µM, first compound 0.0316 µM
[32] = second compound 10 µM, first compound 0.1 µM
[33] = second compound 10 µM, first compound 0.316 µM
[34] = second compound 10 µM, first compound 1 µM
[35] = second compound 10 µM, first compound 3.16 µM
[36] = second compound 10 µM, first compound 10 µM
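Also: spheroids exposed to compounds for one week before readout.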
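For viability, T/C in this document: luminescence used as stand-in measure of viable cells; 100% = DMSO vehicle control viability.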

## O=C(Nc1ccc(O)c(NS(=O)(=O)c2ccc(F)cc2)c1)c1ccc(-c2ccccc2)cc1 + COC1C(OC(N)=O)C(O)C(Oc2ccc3c(O)c(NC(=O)c4ccc(O)c(CC=C(C)C)c4)c(=O)oc3c2C)OC1(C)C
Second compound 0.0316 µM
  IC50: 8.51 µM
Second compound 0.1 µM
  IC50: 8.85 µM
Second compound 0.316 µM
  IC50: 8.8 µM
Second compound 1 µM
  IC50: 8.54 µM
Second compound 3.16 µM
  IC50: 8.17 µM
Second compound 10 µM
  IC50: > 10 µM
[1]
  viability, T/C: 97.7%
[2]
  viability, T/C: 93%
[3]
  viability, T/C: 94.8%
[4]
  viability, T/C: 95.8%
[5]
  viability, T/C: 93.6%
[6]
  viability, T/C: 42.9%
[7]
  viability, T/C: 95.8%
[8]
  viability, T/C: 101%
[9]
  viability, T/C: 87.6%
[10]
  viability, T/C: 114%
[11]
  viability, T/C: 94.6%
[12]
  viability, T/C: 44.3%
[13]
  viability, T/C: 110%
[14]
  viability, T/C: 99.2%
[15]
  viability, T/C: 98.9%
[16]
  viability, T/C: 117%
[17]
  viability, T/C: 94.3%
[18]
  viability, T/C: 44.4%
[19]
  viability, T/C: 90.6%
[20]
  viability, T/C: 108%
[21]
  viability, T/C: 95.7%
[22]
  viability, T/C: 104%
[23]
  viability, T/C: 93.3%
[24]
  viability, T/C: 42.9%
[25]
  viability, T/C: 103%
[26]
  viability, T/C: 105%
[27]
  viability, T/C: 119%
[28]
  viability, T/C: 113%
[29]
  viability, T/C: 94.4%
[30]
  viability, T/C: 40.5%
[31]
  viability, T/C: 118%
[32]
  viability, T/C: 110%
[33]
  viability, T/C: 103%
[34]
  viability, T/C: 98.5%
[35]
  viability, T/C: 92.5%
[36]
  viability, T/C: 48.5%

## COc1cccc2c1C(=O)c1c(O)c3c(c(O)c1C2=O)CC(O)(C(=O)CO)CC3OC1CC(N)C(O)C(C)O1 (centres undefined) + Cc1cccc(N(C)C(=O)C2C(O)CCN2c2nc(C)cc(C(F)(F)F)c2C#N)c1
Second compound 0.0316 µM
  IC50: < 0.0316 µM
Second compound 0.1 µM
  IC50: < 0.0316 µM
Second compound 0.316 µM
  IC50: < 0.0316 µM
Second compound 1 µM
  IC50: < 0.0316 µM
Second compound 3.16 µM
  IC50: < 0.0316 µM
Second compound 10 µM
  IC50: < 0.0316 µM
[1]
  viability, T/C: 37.8%
[2]
  viability, T/C: 18.6%
[3]
  viability, T/C: 4.26%
[4]
  viability, T/C: 0.86%
[5]
  viability, T/C: 1%
[6]
  viability, T/C: 2.87%
[7]
  viability, T/C: 38.3%
[8]
  viability, T/C: 11.9%
[9]
  viability, T/C: 5.5%
[10]
  viability, T/C: 0.82%
[11]
  viability, T/C: 0.95%
[12]
  viability, T/C: 3.55%
[13]
  viability, T/C: 36.5%
[14]
  viability, T/C: 13.7%
[15]
  viability, T/C: 4.69%
[16]
  viability, T/C: 0.81%
[17]
  viability, T/C: 1.46%
[18]
  viability, T/C: 2.87%
[19]
  viability, T/C: 42.5%
[20]
  viability, T/C: 8.66%
[21]
  viability, T/C: 4.35%
[22]
  viability, T/C: 0.62%
[23]
  viability, T/C: 1.26%
[24]
  viability, T/C: 2.94%
[25]
  viability, T/C: 40.4%
[26]
  viability, T/C: 13.7%
[27]
  viability, T/C: 5.27%
[28]
  viability, T/C: 0.66%
[29]
  viability, T/C: 1.47%
[30]
  viability, T/C: 2.63%
[31]
  viability, T/C: 24.7%
[32]
  viability, T/C: 9.06%
[33]
  viability, T/C: 7.17%
[34]
  viability, T/C: 0.84%
[35]
  viability, T/C: 3.16%
[36]
  viability, T/C: 3.87%
